From patent US9446127B2, “Compositions including androgen receptor degradation (ARD) enhancers and methods of prophylactic or therapeutic treatment of skin disorders and hair loss” (AndroScience Corporation, priority 2007, dated 2016) come the findings set out here.

The target of one assay is T1, androgen receptor (AR) (Homo sapiens, UniProt P10275, T878A).
T1 construct: endogenous in cells; host or cells: LNCaP
T1 sequence (P10275 1-920 T878A): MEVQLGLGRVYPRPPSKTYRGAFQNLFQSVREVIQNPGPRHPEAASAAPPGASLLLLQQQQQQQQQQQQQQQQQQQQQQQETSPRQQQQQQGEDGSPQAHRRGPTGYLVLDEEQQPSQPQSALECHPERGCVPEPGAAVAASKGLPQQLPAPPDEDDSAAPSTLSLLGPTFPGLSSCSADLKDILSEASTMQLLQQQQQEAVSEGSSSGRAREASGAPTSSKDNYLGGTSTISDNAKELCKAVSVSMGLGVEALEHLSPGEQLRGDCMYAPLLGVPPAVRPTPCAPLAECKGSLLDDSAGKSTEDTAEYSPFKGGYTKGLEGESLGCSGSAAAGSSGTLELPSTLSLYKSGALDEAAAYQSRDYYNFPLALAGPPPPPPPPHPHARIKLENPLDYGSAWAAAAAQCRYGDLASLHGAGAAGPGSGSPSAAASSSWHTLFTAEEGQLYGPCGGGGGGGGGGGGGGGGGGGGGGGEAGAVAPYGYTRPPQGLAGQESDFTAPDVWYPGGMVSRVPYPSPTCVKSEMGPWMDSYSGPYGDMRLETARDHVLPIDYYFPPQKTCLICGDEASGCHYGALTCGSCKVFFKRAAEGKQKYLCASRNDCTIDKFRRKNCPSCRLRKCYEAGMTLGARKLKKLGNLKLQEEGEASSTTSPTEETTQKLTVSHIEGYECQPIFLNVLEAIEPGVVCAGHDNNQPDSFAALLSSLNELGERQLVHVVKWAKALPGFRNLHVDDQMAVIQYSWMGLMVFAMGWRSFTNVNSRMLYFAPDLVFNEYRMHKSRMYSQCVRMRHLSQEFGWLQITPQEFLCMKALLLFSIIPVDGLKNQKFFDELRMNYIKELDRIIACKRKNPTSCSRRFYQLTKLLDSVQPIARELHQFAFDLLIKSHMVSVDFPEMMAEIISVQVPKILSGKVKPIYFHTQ
The experiment in a line: Specificity Western blot in LNCaP cell lysates, AR. The class given is cell-based. The settings on record: 1 or 5 micromolar, 24 hours, presence or absence of DHT. On the procedure:
Human prostate cancer LNCaP cells and T47D cells were plated at a density of 7×10^5 cells per 60 millimeter tissue culture dish in […] medium containing 10% FBS. The medium was changed to RPMI or DME medium containing 10% charcoal-stripped serum 24 hours later to deplete cellular androgens or estrogens. After another 24 hours, treatment with the test compounds began. The test dose of ASC-J9 was 1, and 5 and micromolar. LNCap cells also received dihydrotestosterone (DHT) (3 nanomolar). Control cells received a corresponding amount of the vehicle, dimethylsulfoxide (DMSO) (<0.04%) for an equivalent exposure time. Cells were incubated with ASC-J9 for 24 hours, and were lysed in 250 microliters of 1×SDS/PAGE loading buffer. Approximately 40 micrograms of total cellular protein was loaded in each lane of a pre-cast gel (NuPAGE, Invitrogen). Protein separation and transfer were performed following the manufacturer's instructions.
For the LNCaP cell lysates, androgen receptor (AR) protein was visualized by incubating the resultant membranes with an anti-AR antibody (BD-PharMingen), followed by chemiluminescence detection (ECL Plus, Amersham). […] The resultant protein signals were quantified using densitometry and NIH ImageJ software.

Assay [1] has as its target T2, mutant androgen receptor poly Q49 (GFPARQ49) (Homo sapiens, UniProt P10275, INS80QQQQQQQQQQQQQQQQQQQQQQQQQQ).
T2 construct: GFP (green fluorescent protein); expressed in transfected cells; host or cells: COS-1 (monkey kidney)
The experiment in a line: Fluorescence microscopy of COS-1 cells transfected with GFPARQ49. It counts as cell-based. As to conditions: COS-1, 5 micromolar. The protocol:
Monkey kidney COS-1 cells were plated at a density of 3×10^4 cells per 0.5-milliliter volume onto alcohol-cleaned and sterilized cover slips placed in 35-millimeter suspension culture dishes containing Dulbecco's modified Eagle's (DME) medium containing 10% FBS. The cells were transfected with plasmids containing the wild type AR (GFPAR) or poly Q49 (plasmid GFPARQ49) mutant androgen receptor and green fluorescent protein (GFP) as a reporter. For each coverslip, 12.3 microliters SuperFect was added to 3.075 micrograms plasmid in 102.5 microliters DME medium (to give a 1:4 ratio of DNA to SuperFect reagent); the mixture was vortexed briefly, and the complex allowed to form over 15 minutes. Each mixture then received 897 microliters CD/DME and was mixed gently. The resulting 1-milliliter volumes were added to the dishes containing the coverslips (final plasmid concentration was […] per dish). Cells were allowed to incubate with the transfection solution for 5 hours, then the medium was changed to fresh 1.5 milliliters CD/DME medium with either vehicle (DMSO) only added or ASC-J9 (final concentration 5 micromolar). […] The coverslips were air-dried, mounted on slides with a glycerol-based mounting agent, and stored at 4 degrees Celsius if necessary prior to observation with fluorescence microscopy. […]

T2 sequence (P10275 with tags, fused parts or gaps with the stated changes): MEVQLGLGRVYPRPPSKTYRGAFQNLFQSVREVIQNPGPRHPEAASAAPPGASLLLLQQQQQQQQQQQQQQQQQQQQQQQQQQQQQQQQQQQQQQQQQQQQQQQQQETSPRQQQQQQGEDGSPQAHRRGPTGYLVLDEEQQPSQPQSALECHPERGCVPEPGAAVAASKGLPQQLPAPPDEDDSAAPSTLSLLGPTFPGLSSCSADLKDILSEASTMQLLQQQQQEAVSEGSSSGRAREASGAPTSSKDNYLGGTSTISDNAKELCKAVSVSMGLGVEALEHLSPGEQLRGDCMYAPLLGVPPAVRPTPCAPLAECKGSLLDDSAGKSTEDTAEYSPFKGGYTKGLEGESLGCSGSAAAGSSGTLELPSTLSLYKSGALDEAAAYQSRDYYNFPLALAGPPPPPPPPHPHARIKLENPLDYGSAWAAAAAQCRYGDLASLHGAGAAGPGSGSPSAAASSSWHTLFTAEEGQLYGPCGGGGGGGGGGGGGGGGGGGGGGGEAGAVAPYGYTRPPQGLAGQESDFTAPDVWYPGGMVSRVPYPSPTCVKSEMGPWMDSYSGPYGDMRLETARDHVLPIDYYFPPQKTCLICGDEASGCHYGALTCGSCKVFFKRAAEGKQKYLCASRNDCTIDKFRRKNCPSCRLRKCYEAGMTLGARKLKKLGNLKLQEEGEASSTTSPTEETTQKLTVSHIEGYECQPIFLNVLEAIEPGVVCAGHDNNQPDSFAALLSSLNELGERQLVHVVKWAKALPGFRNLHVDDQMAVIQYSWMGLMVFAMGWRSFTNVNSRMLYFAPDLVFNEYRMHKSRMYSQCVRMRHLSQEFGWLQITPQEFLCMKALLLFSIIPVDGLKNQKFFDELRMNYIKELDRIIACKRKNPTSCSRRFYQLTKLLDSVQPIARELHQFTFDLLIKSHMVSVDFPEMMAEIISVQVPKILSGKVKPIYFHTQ

In the case of `COc1ccc(C=CC(=O)C=C(O)C=Cc2ccc(OC)c(OC)c2)cc1OC` [ASC-J9, 5-hydroxy-1,7-bis(3,4-dimethoxyphenyl)-1,4,6-heptatrien-3-one], at androgen receptor (AR), the “cellular concentration of AR” value is on record as “significantly decreased”. Moreover, the “fluorescent inclusions or aggregates of mutant poly Q49 AR” value in assay [1] is “substantially smaller amounts of fluorescent inclusions”.
